Test results: article PMC10272112 (Nature Communications, 2023)
“And” between values parts separate entries of the source, which are not always exact repeats. Equal values may be shown once.

Tests used:
HDAC3/NcoR2 complex = target: T1, HDAC3/NcoR2 complex (Homo sapiens, UniProt O15379); experiment: HDAC-Glo assay; assay type: biochemical; settings: read-out: log EC50 from dose-dependent HDAC inhibition curves (converted)
T1 construct: purchased BPS Bioscience 50003
Procedure: (§1) To validate the inhibition of HDACs by LA and LM and elaborate on the structure-activity relationship (SAR) of enantiomers as well as oxidized versus reduced forms of the molecules, we performed enzyme activity assays for recombinant HDAC1,2,3,6,8 as well as FRET-based binding assay for recombinant HDAC10.
(§2) The experiments were performed according to ref. [48]. […] Drug dosing was performed with a D300e Digital Dispenser (Tecan). HDACs (7 ng/mL for HDAC1, 25 ng/mL for HDAC2, 200 ng/mL for HDAC3/Ncor2 complex, 100 ng/mL for HDAC6, 200 ng/mL for HDAC8) and inhibitors were incubated together at room temperature (RT) for 30 min. After the addition of the HDAC-Glo™ I/II reagent, plates were shaken (800 rpm orbital shaker, 30 s), centrifuged (300 g, 1 min), and incubated at RT for 30 min. Luminescence was detected with a CLARIOstar (BMG Labtech) plate reader.

HDAC2 = HDAC2 (Homo sapiens, UniProt Q92769); experiment: HDAC-Glo assay; assay type: biochemical; set-up: purchased BPS Bioscience 50002; settings: read-out: log EC50 from dose-dependent HDAC inhibition curves (converted)
Sequence of HDAC2 (Q92769 whole entry): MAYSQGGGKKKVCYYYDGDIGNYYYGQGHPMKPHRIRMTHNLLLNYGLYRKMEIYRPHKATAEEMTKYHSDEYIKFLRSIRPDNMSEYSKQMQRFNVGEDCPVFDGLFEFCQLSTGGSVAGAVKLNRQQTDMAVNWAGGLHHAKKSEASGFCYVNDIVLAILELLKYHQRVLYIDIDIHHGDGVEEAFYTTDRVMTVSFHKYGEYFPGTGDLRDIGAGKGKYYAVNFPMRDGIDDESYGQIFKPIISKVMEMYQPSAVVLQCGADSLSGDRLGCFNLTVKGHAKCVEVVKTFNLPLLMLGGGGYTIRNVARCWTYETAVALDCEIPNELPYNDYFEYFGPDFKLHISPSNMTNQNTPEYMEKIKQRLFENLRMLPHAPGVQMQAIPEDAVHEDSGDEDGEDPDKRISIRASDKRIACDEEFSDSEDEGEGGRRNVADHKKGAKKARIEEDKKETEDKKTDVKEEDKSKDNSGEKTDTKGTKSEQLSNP
Procedure: as §1, §2

HDAC6 = target: T2, HDAC6 (Homo sapiens, UniProt Q9UBN7); experiment: HDAC-Glo assay; assay type: biochemical; set-up: purchased BPS Bioscience 50006; settings: read-out: log EC50 from dose-dependent HDAC inhibition curves (converted)
T2 sequence (Q9UBN7 1-1215): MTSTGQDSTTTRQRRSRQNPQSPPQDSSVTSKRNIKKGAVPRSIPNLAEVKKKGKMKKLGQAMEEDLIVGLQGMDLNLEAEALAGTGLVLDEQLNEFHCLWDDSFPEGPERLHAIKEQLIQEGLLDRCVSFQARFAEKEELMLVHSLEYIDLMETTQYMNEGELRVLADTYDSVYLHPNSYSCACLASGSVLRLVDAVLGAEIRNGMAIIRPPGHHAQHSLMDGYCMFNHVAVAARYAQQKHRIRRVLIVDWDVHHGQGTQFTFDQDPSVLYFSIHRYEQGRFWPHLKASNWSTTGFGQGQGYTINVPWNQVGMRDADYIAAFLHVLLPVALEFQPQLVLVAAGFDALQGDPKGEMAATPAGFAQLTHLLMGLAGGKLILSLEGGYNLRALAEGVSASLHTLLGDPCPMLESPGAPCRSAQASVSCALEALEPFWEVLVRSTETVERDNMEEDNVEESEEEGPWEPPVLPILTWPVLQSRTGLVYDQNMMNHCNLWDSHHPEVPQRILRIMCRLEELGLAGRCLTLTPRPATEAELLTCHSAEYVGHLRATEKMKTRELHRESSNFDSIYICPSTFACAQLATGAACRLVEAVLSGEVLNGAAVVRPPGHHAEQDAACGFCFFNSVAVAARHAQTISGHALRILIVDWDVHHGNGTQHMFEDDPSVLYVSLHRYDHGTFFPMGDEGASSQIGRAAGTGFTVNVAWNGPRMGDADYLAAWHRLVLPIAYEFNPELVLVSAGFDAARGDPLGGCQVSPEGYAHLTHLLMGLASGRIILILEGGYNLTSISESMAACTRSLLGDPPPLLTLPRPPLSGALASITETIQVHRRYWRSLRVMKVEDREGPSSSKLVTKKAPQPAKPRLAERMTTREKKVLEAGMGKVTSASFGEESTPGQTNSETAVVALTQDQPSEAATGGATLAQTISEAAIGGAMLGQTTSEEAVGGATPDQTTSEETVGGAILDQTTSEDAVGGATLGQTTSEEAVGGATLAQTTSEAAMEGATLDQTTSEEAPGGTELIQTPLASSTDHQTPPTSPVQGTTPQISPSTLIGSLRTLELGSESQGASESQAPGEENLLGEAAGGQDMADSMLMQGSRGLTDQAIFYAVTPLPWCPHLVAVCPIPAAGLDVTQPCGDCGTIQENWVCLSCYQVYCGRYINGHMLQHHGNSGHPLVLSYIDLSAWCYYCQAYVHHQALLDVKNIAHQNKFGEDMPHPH
Procedure: as §1, §2

HDAC8 = target: T3, HDAC8 (Homo sapiens, UniProt Q9BY41); experiment: HDAC-Glo assay; assay type: biochemical; set-up: purchased BPS Bioscience 50008; settings: read-out: log EC50 from dose-dependent HDAC inhibition curves (converted)
T3 sequence (Q9BY41 1-377): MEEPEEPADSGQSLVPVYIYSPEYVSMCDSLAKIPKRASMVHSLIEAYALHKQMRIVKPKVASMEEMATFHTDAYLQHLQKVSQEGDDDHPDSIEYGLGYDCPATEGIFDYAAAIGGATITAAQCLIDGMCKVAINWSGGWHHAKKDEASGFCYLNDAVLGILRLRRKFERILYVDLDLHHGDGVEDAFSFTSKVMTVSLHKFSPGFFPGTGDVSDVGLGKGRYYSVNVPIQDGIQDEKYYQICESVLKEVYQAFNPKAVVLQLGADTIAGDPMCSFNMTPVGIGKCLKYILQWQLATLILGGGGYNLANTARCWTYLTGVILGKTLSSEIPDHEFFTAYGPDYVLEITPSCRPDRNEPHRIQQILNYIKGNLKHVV
Procedure: as §1, §2

HDAC1 = HDAC1 (Homo sapiens, UniProt Q13547); experiment: HDAC-Glo assay; assay type: biochemical; set-up: purchased BPS Bioscience 50051; settings: for raw luminescence signal, HDAC1 inhibition: 0.5 M TCEP
Sequence of HDAC1 (Q13547 whole entry): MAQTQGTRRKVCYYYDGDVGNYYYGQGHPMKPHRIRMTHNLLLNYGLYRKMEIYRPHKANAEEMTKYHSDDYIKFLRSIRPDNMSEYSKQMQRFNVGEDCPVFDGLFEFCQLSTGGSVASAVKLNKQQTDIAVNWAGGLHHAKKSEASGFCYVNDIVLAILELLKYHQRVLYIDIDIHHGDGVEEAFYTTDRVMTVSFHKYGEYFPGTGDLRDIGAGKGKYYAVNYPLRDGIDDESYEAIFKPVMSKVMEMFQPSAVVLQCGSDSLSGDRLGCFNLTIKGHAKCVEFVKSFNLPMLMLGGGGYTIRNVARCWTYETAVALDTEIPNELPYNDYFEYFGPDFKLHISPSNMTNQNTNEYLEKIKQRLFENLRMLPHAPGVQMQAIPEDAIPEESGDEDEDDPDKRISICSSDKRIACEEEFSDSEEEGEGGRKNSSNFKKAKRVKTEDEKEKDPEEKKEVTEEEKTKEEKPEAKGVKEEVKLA
Procedure: as §1, §2

α-Tubulin AcK40 = experiment: α-tubulin acetylation detection by western blot, CBP-HA transfected HEK293T; assay type: cell-based; settings: HEK293T, ACY-738 5 µM
Procedure: (§3) 0.2 × 10^6 HEK293T (ATCC: CRL-3216) cells were transfected with pcDNA 3.1-HA CBP plasmids (1 μg/well for the 6-well plate) by FuGENE. After 2 days, cells were treated with ACY-738, lipoic acid, and lipoamide for 7 h, then were washed by ice-cold PBS and lysed in Triton lysis buffer (50 mM Tris, pH 8.0, 150 mM NaCl, 1 mM EDTA, 0.1% TritonX-100 and complete EDTA-free protease inhibitors (Roche)) for analysis. To detect protein acetylation, 0.2 μM Trichostatin A and 5 mM nicotinamide were added to PBS for washing, and 10 μM trichostatin A, 10 mM nicotinamide, and 50 mM sodium butyrate were added to Triton lysis buffer.

DDX3X AcK118 [1] = experiment: DDX3X acetylation detection by western blot, CBP-HA transfected HEK293T; assay type: cell-based; settings: 5 µM
Procedure: as §3

A549 cells [2] = experiment: CellRox deep red assay for ROS quantification (with or without arsenite); assay type: cell-based; settings: sheet 4d
A549 cells [3] = experiment: CellRox deep red assay for tBuOOH-induced ROS; settings: NAC 500 ?M; sheet 4c; DMSO mean = 1
Procedure: A549 cells were maintained in DMEM (Sigma) supplemented with 10% fetal bovine serum (Pan Biotech). […] The CellRox assay was performed according to the product guidelines (ThermoFisher). Briefly, cells were treated with lipoic acid, N-acetyl-cysteine (NAC), or vector control (DMSO) for 1 h, followed by a 2 h treatment with 200 µM tert-butyl hydroperoxide, and then stained with 5 µM CellRox Deep Red for 1 h. Cells were washed twice with FluoroBrite DMEM (ThermoFisher) supplemented with 10% FBS before imaging. CellRox Deep Red signal intensity was measured on a Leica DMI 6000 B epifluorescent microscope with a Cy5 filter set. […] Significance was calculated by ANOVA with a post hoc Dunnett’s multiple comparisons test against the DMSO control (GraphPad).

[4] = system: HDACs (HDAC1, HDAC2, HDAC6); set-up: method as in earlier work; settings: ref Bantscheff et al., Nat Biotech, 2011; Lechner et al., Nat Chem Bio, 2023; read-out: EC50 in comparable chemoproteomic competition assays; cited from earlier work
DDX3X AcK118 [5] = settings: 10 µM; cited from earlier work

T1 sequence (O15379 whole entry): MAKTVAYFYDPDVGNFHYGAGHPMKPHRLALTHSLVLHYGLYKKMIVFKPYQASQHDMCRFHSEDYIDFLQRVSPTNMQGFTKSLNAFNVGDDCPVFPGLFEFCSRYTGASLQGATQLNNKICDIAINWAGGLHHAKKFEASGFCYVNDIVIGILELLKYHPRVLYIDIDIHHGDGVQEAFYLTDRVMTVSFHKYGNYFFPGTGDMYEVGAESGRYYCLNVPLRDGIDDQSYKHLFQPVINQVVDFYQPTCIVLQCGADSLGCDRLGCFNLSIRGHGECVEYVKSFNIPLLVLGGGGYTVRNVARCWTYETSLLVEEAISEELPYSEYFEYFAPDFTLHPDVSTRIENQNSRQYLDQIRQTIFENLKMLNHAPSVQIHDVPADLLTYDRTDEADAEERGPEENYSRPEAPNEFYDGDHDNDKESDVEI
T1 sequence (Q9Y618 395-489 partner limits assumed): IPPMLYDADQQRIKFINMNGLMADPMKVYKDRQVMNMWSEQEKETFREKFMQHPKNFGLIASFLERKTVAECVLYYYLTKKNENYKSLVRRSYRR

O=C(O)CCCCC(S)CCS (racemic) [RS LA reduced, (R/S)-dihydrolipoic acid]
EC50 (HDAC3/NcoR2 complex): 47.5 µM | EC50 (HDAC2): 33.4 µM | EC50 (HDAC6): 2.42 µM | EC50 (HDAC8): 20.2 µM | raw luminescence signal, HDAC1 inhibition (HDAC1; log10 M -3.30103, 3 technical replicates): 10948 and 11336 and 10633 | raw luminescence signal, HDAC1 inhibition (HDAC1; log10 M -3.82945, 3 technical replicates): 35128 and 33959 and 34884 | raw luminescence signal, HDAC1 inhibition (HDAC1; log10 M -4.35788, 3 technical replicates): 100059 and 96489 and 102534 | raw luminescence signal, HDAC1 inhibition (HDAC1; log10 M -4.88629, 3 technical replicates): 200567 and 200318 and 195985 | raw luminescence signal, HDAC1 inhibition (HDAC1; log10 M -5.41477, 3 technical replicates): 315045 and 314071 and 307544 | raw luminescence signal, HDAC1 inhibition (HDAC1; log10 M -5.94309, 3 technical replicates): 353287 and 345284 and 342473 | raw luminescence signal, HDAC1 inhibition (HDAC1; log10 M -6.47756, 3 technical replicates): 372512 and 378178 and 378301 | raw luminescence signal, HDAC1 inhibition (HDAC1; log10 M -6.87615, 3 technical replicates): 385390 and 377410 and 356944 | EC50 (HDAC1; read-out: log EC50 from dose-dependent HDAC inhibition curves (converted)): 15.1 µM

O=C(NO)c1cnc(NC2(c3ccccc3)CC2)nc1 [ACY-738]
α-Tubulin AcK40 acetylation level relative to control (α-Tubulin AcK40): 6.5 fold | DDX3X AcK118 acetylation level relative to control (DDX3X AcK118 [1]): 3.0 fold | DDX3X AcK118 acetylation level relative to control (DDX3X AcK118 [1]; listed as ACY738): 3 fold

CC(=O)N[C@@H](CS)C(=O)O [NAC, N-acetyl-cysteine]
ROS (CellRox), relative to DMSO -Ars., Mean (A549 cells [2]; NAC +Ars): 0.6662 | ROS (CellRox), relative to DMSO -Ars., replicate values (A549 cells [2]; NAC +Ars): 0.6371 and 0.672 and 0.6896 | tBuOOH-induced ROS (CellRox), relative to DMSO, Mean (A549 cells [3]): 0.6999 | tBuOOH-induced ROS (CellRox), relative to DMSO, replicate values (A549 cells [3]): 0.7684 and 0.7006 and 0.6306

O=C(O)CCCc1ccccc1 [Phenylbutyric acid]
EC50 [4]: 300 to 500 µM

CC(C)(C)OO [TBHP]
ROS (CellRox), relative to DMSO -Ars., Mean (A549 cells [2]; TBHP -Ars): 8.0156 | ROS (CellRox), relative to DMSO -Ars., replicate values (A549 cells [2]; TBHP -Ars): 8.277 and 8.688 and 7.082

CN1CCc2c(c3ccccc3n2Cc2ccc(C(=O)NO)cc2)C1 [Tubastatin A]
DDX3X hyperacetylation (DDX3X AcK118 [5]): 2.6 fold

CCCC(CCC)C(=O)O [Valproic acid]
EC50 [4]: 300 to 500 µM
